How the values were obtained:
H838 cells' mitochondria = experiment: Effect of membrane potential (high K+ medium, FCCP) on 5BMF accumulation; assay type: cell-based
Procedure: To verify that F16 derivatives preserve the same property, H838 cells were preincubated in high K^+ medium (137 mM) to depolarize the plasma membrane, then 5BMF (3 μM) was added and incubated for 30 min. […] As with other DLCs, the selectivity of F16s for mitochondria is driven by the negative transmembrane potential.[18]
Mitotracker® Red (Molecular Probes) and Hoechst (Thermo Scientific) were added to the medium to stain the mitochondria and nuclei, following the manufacturer’s procedures. Cells were photographed as previously described using a 63× oil or 20× objective lens.
The effect of membrane potential on 5BMF accumulation was performed through staining HCC827 cells in low K+ and high K+ buffer, instead of RPMI-1640 culture medium. Low K+ buffer contains 137 mM NaCl, 3.6 mM KCI, 0.5 mM MgCl2, 1.8 mM CaCl2 of RPMI-1640 medium (GIBCO). […]
Cytotoxicity assay. […] After incubating for 3 days, the viable cell numbers were checked and directly counted under microscopy (10X). A minimum of 1mm×1mm area was counted from each of at least three widely separated regions of cell culture. The cell proliferation rate was calculated by the following formula: cell proliferation rate (%) = (average cell number of sample wells / average cell number of control wells) ×100%.
(§1) The intact culture medium was evaluated as a control. […]

[1] = Relative fluorescence quantum yield; assay type: physicochemical; conditions: EtOH, relative to rhodamine 6G, excited at 425 nm
Procedure: Quantum yield. The fluorescence quantum yields of F16s were determined according to the […]
Where Φ is the quantum yield, F is the integrated area under the corrected emission spectrum, and A is the absorbance at the excitation wavelength; the subscripts x and s refer to F16s and the standard, respectively. Rhodamine 6G (ΦF = 95%) in ethanol was used as the standard. All F16s and Rhodamine 6G were dissolved in ethanol in 5 different concentrations with the absorbance lower than 0.1 at 425nm. The corresponding 5 different fluorescences of F16s and Rhodamine 6G were excited at 425 nm and the emission spectra from 450 nm to 650 nm were obtained for the following integrated area measurement. All data were analyzed using Origin Pro 9.0 software (OriginLab, Northampton, Massachusetts, USA) to get the F16s final quantum yield. […]

H2228 NSCLC cell line = experiment: Cytotoxicity assay, H2228; assay type: cell-based; conditions: Homo sapiens, NCI-H2228, H2228 cells
Procedure: (§2) Cell culture, imaging, and cytotoxicity assay
(§3) RPMI-1640 medium. NIH/3T3 was cultured in DMEM medium. A549 was cultured in F-12K medium. T24 were cultured in McCoy's 5A medium. All culture mediums were supplemented with 10% fetal bovine serum. The cells were incubated at 37 °C in an atmosphere containing 5% CO 2. […]
(§4) Cytotoxicity assay. All test cell lines were incubated in 96-well plates overnight at a density of 3000 cells/well. The culture medium was replaced with 200 μL of culture medium, into which the testing compound was dispersed at various concentrations (1.95 - 500 μM). After incubating for 3 days, the viable cell numbers were checked and directly counted under microscopy (10X). A minimum of 1mm×1mm area was counted from each of at least three widely separated regions of cell culture. The cell proliferation rate was calculated by the following formula: cell proliferation rate (%) = (average cell number of sample wells / average cell number of control wells) ×100%.
as §1
(§5) All animal experiments were performed in compliance with the Guidelines for the Care and Use of Research Animals as established by the Stanford University Animal Studies Committee. Female athymic nude mice (nu/nu) from 4−6 weeks old were obtained from Charles River Laboratories (Boston, MA, USA) and kept under sterile conditions. 5 × 106 human lung adenocarcinoma

HCC4006 NSCLC cell line = experiment: Cytotoxicity assay, HCC4006; assay type: cell-based; conditions: Homo sapiens; HCC4006 cells
Procedure: as §2, §3, §4, §1, §5

H1437 NSCLC cell line = experiment: Cytotoxicity assay, H1437; assay type: cell-based; conditions: Homo sapiens, NCI-H1437; H1437 cells
Procedure: as §2, §3, §4, §1

[2] = system: subcutaneous HCC827 tumor; experiment: In vivo and ex vivo fluorescence imaging of HCC827 tumor-bearing mice; set-up: species or system nude mice
Procedure: HCC827 cells suspended in 150 µL of PBS were inoculated subcutaneously in the right shoulder […]
When the tumors reached ~3 mm in diameter, the tumor-bearing mice were administered i.v. with 5BMF (dissolved in 150 µL PBS, with 2 µL DMSO) at 15 mg/Kg on days 1, 3, 5, 7, 9, 11, 13, 15, 17, 19, 21. Correspondingly, untreated tumor-bearing mice serving as controls were administered i.v. with 150 µL 1× PBS pH 7.4 (with 2 µL DMSO) on the same days as the treated mice. Ten mice were used for each group. Length and width of the elliptical tumors were measured by Vernier caliper after every intravenous injection. Modified ellipsoid formula ½ (Length × Width2) was used to calculate the tumor size. The tumor growth was calculated with the ratio of final volume (FV) minus initial volume (IV) to initial volume (IV).
In vivo fluorescent imaging was taken 40 minutes and 2 hours after the injection of 5BMF 15 mg/kg. IVIS spectrum instrument was used. The excitation wavelength was set at 450 nm.
Collection wavelength was set at 550 nm, using a 3s acquisition time. 4 mice for each group were used. Mice were sacrificed and the organs were harvest after each set of in vivo imaging.
Fluorescent images of the organs were taken under the same settings.
The tumor tissues and some important organs such as liver, kidney, lung, heart were isolated. After frozen, the specimens sectioned at 5-8 µm and processed for a standard hematoxylin-eosin (H&E) staining. Slides were viewed and photographed with the Nanozoomer Digital Pathology Image […]
The body weights of mice are presented as means ± standard deviation (SD) of n independent measurements. The tumor volumes are presented as means ± standard error of mean (SEM) of n independent measurements. Statistical analysis was performed using a Student’s t-test or Mann-Whitney U test. Statistical significance was assigned for P values <0.05.
Detail F16s Synthesis information

SMILES: Cc1cc(Br)cc2c(/C=C/c3cc[n+](C)cc3)c[nH]c12 [5BMF]
- accumulation in mitochondria in high K+ medium versus low K+ medium (H838 cells' mitochondria; H838 cells, 3 μM, 30 min, high K+ 137 mM, low K+ 3.6 mM): much less 5BMF accumulation in mitochondria
- mitochondrial staining after addition of FCCP (H838 cells' mitochondria; cells preloaded with 5BMF, FCCP 5 µM, 1 and 3 min): immediately decayed and diffused into the cytoplasm
- Quantum Yield [1]: 19.7%
- Quantum Yield ([1]; listed as 3): around 20%
- IC50 (H2228 NSCLC cell line): ~0.05 µM
- IC50 (HCC4006 NSCLC cell line): 0.106 µM
- IC50 (H1437 NSCLC cell line): 1.43 µM
- accumulation in tumor, kidney, bone, stomach, bowel, pancreas and skin ([2]; ex vivo imaging at 40 min and 2 h PI): accumulated more 5BMF compared with the liver, spleen, heart, lung, and brain
- tumor/lung ratio ([2]; ex vivo imaging, 2 h PI, 15 mg/kg): ~7
- tumor to background ratio ([2]; in vivo fluorescence, 2 h post IV injection, 15 mg/kg): ~2
